# Source: patent US20080019909A1, “Modulation of Programmed Necrosis” (priority 2003, published 2008)
# “Also recorded” adds a separate entry of the source.
# How the values were obtained:
# [1] = tested on: FADD -/- I42 cells; assay: TNF cytotoxic assay (cell loss by PI exclusion on FACS), FADD -/- I42 cells; format: cell-based; details: FADD -/- I42 cells; TNF 16 hours; zVAD-fmk or GA
# Method: Cells were stimulated with, TNF or anti-Fas antibody (CH11) for 12 hours and cell loss was analyzed on the GFP+ cells by PI exclusion on FACS.
# FIG. 8F is a bar graph depicting the results of experiments in which FADD -/- I42 cells and caspase-8 -/- J3.2 cells (both are TNFR-2+) were stimulated with TNF in the presence or absence of zVAD-fmk for 16 hours.
# [2] = tested on: TNFR-2+ RIP -/- Jurkat cells (R1.1); assay: TNF cytotoxic assay (cell loss by PI exclusion on FACS), TNFR-2+ RIP -/- cells; format: cell-based
# From the text: The results are representative of three experiments.
# [3] = tested on: RIP; assay: Western blot of RIP cleavage in TNF or anti-Fas stimulated wild-type 4E3 cells; format: cell-based; details: six hours, C-terminal specific RIP antibody
# Method: FIG. 4A is a Western blot showing the results of experiments in which wild-type 4E3 cells (WT) and J3.2 cells (Casp-8 -/-) cells Were treated with various combinations of rhTNFα, Apo-1 (anti-Fas), and zVAD-fmk for six hours before whole cell lysates were harvested.
# [4] = tested on: TNFR-2-expressing wild-type (4E3) Jurkat cells
# Method: Cells were harvested and analyzed by PI exclusion on FACS 16 hours post-stimulation and cell loss was calculated as described in Example 1 (infra).
# [5] = tested on: caspase-8 -/- J3.2 cells; assay: TNF cytotoxic assay (cell loss by PI exclusion on FACS), caspase-8 -/- J3.2 cells; details: caspase-8 -/- J3.2 cells; rhTNF 15-16 hours; zVAD-fmk or 0.5 mM GA pretreatment
substance,measurement,setting,value
z-Val-Ala-Asp-fluoromethyl ketone [zVAD-fmk],TNF-induced programmed necrosis (cell loss),[1],failed to provide any protection; also recorded: not blocked
same,TNF-induced death (cell loss),"[2]; TNFR-2+ RIP -/- cells (R1.1), 10 ng/ml rhTNFα, 16 hours, 50 mM zVAD-fmk or 0.5 mM GA",completely inhibited
same,"TNF killing restored by K45A or RIPc, in the presence of zVAD-fmk",[2]; TNFR-2+ RIP -/- cells reconstituted with kinase inactive (K45A) RIP or RIPc,potently inhibited
same,RIP cleavage,[3],potently inhibited
same,"cell viability, compound alone",[4],no effect
same,"TNF-induced death (cell loss), zVAD-fmk plus GA together","[4]; wild-type 4E3 cells, 10 ng/ml rhTNFα with zVAD-fmk plus GA, 16 hours",synergized to completely suppress
same,"TNF-induced death (cell loss), single agent","[4]; wild-type 4E3 cells, 10 ng/ml rhTNFα, 16 hours, or 0.5 mM GA",partial protective effect
same,TNF-induced programmed necrosis (cell loss),[5],failed to provide any protection; also recorded: not blocked
